Experimental data: patent US11814364B2, “Pyridine N-oxide derivatives useful as factor XIa inhibitors” (Janssen Pharmaceutica NV, priority 2021, dated 2023)
pIC50: −log10 of the molar value.

target: human plasma kallikrein (Homo sapiens, UniProt P03952); assay: Kallikrein inhibition FLINT assay with quenched AMC peptide substrate Z-Gly-Pro-Arg-AMC (end point EP or kinetic KIN reads); type: biochemical; conditions: kinetic reads at 5 min intervals over 30 min; read-out: Kallikrein (KIN) IC50
Method: A fluorescence intensity (FLINT) based assay was used to monitor inhibition of human plasma kallikrein.
The Kallikrein FLINT assay was used with the following Z-Gly-Pro-Arg-AMC assay buffer: 50 mM Tris, pH 7.5, 100 mM NaCl, 5 mM CaCl2, 0.1 mg/mL BSA, 0.03% CHAPS. Assay buffer was prepared by mixing all ingredients fresh. 2× Z-Gly-Pro-Arg-AMC peptide substrate was prepared by diluting 10 mM stock into 1× assay buffer for a 100 μM working concentration (50 μM final concentration).
Test compound(s) were run in an 11-point, 3-fold serial dilution with a final top compound concentration of 1 μM. Final DMSO in assay was 2%. Plasma kallikrein was pre-incubated for 30-minute with compound and then 50 μM substrate was added to initiate the reaction. The assay was run with either end point (EP) reads at 30 min or kinetic (KIN) reads at 5 min intervals over 30 minutes.
Percent inhibition (IC50) curves were generated per compound tested, and data was analyzed using a 4-parameter logistic fit using GeneData Screener. The relative fluorescence unit (RFU) values were normalized to percent inhibition using the following equation: % inhibition=((HC−LC)−(compound−LC)/(HC−LC))*100
An 11-point dose response curve for the test compound(s) was generated using GENDATA to determine IC50 value based on the following equation: Y=Bottom+(Top−Bottom)/(1+10^((log IC50−X)*HillSlope))
Results listed in columns with […] designation were measured using endpoint reads where a single fluorescence reading was measured for each well at a 30 min timepoint.

human plasma kallikrein, sequence (P03952 391-638 limits assumed): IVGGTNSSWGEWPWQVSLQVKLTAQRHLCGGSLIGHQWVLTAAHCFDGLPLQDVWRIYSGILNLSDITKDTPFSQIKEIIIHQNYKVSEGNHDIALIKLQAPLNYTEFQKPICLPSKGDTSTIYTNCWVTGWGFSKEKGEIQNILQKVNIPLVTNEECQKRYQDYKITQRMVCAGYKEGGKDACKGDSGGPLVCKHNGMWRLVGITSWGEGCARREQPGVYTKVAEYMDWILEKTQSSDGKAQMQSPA
human plasma kallikrein, sequence (P03952 20-390 partner limits assumed): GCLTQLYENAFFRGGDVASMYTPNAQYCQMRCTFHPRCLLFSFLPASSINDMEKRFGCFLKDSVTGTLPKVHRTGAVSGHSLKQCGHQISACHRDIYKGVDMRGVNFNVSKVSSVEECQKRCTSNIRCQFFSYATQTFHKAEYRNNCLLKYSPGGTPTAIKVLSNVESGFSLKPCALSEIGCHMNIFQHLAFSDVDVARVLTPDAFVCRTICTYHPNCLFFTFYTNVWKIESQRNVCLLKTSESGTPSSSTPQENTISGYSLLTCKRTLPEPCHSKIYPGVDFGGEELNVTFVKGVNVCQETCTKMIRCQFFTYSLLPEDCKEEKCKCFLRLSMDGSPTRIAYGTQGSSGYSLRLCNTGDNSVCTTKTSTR

Point of comparison: `CC(C)(C)OCC[C@H](c1ccc(-c2c(-n3cnnn3)ccc(Cl)c2F)c[n+]1[O-])n1cc(-c2ccnn2C(F)F)cn1` [Example P640], pIC50 6.75. Against it:
- O=C(NC1CC1)c1ccc(-c2cnn(C(Cc3ccc(F)cc3)c3ccc(-c4c(-c5cnco5)ccc(Cl)c4F)c[n+]3[O-])c2)cc1 (centres unmarked) [Example P136] — within 0.2 log units, 6.72
- COC(=O)Nc1ccc(-c2cnn(C(CC3CCCCO3)c3ccc(-c4c(-n5cnnn5)ccc(Cl)c4F)c[n+]3[O-])c2)cc1 (centres unmarked) [Example P220] — 1.11 log units higher, 7.86
- CCOCCC(c1ccc(-c2c(-n3cnnn3)ccc(Cl)c2F)c[n+]1[O-])n1cc(-c2ccc(NC(=O)OC)cc2)cn1 (centres unmarked) [Example P204] — 0.60 log units higher, 7.35
- [O-][n+]1cc(-c2c(-n3cnnn3)ccc(Cl)c2F)ccc1[C@H](Cc1ccc(F)cc1)n1cc(-c2ccnn2C(F)F)cn1 [Example P566] — 0.42 log units higher, 7.17
- [O-][n+]1cc(-c2c(-n3cnnn3)ccc(Cl)c2F)ccc1C(Cn1ccc(C(F)(F)F)n1)n1cc(-c2ccnc(F)c2)cn1 (centres unmarked) [Example P357] — 0.88 log units higher, 7.63
- Cn1nnc(F)c1-c1cnn(C(CC2CC2)c2ccc(-c3c(-n4cnnn4)ccc(Cl)c3F)c[n+]2[O-])c1 (centres unmarked) [Example P744] — 0.56 log units higher, 7.31
- Nc1cnc(-c2cnn(C(CCOC(F)F)c3ccc(-c4c(-n5cc(C(F)(F)F)nn5)ccc(Cl)c4F)c[n+]3[O-])c2)c(F)n1 (single isomer, unassigned) [Example P833] — 0.45 log units higher, 7.20
- COCC[C@H](c1ccc(-c2c(-n3cnnn3)ccc(Cl)c2F)c[n+]1[O-])n1cc(-c2ccn(C(F)F)n2)cn1 [Example P560] — 0.24 log units higher, 6.99
- O=C(O)c1cccc(-c2cnn(C(CC3CC3)c3ccc(-c4cc(Cl)ccc4-n4cnnn4)c[n+]3[O-])c2)c1 (centres unmarked) [Example P13] — 0.48 log units lower, 6.27
- Cn1nc(C(F)(F)F)cc1-c1cnn(C(CC2CC2)c2ccc(-c3c(-n4cnnn4)ccc(Cl)c3F)c[n+]2[O-])c1 (centres unmarked) [Example P548] — 0.46 log units lower, 6.29
- [O-][n+]1cc(-c2c(-n3cnnn3)ccc(Cl)c2F)ccc1C(CC1CC1)n1cc(-c2cnco2)cn1 (centres unmarked) [Example P497] — within 0.2 log units, 6.77
- [O-][n+]1ccc(-c2cnn(C(CC3CC3)c3ccc(-c4c(-n5cnnn5)ccc(Cl)c4F)c[n+]3[O-])c2)cc1 (single isomer, unassigned) [Example P280] — 0.33 log units higher, 7.08
- NC(=O)c1ccc(-c2cnn(C(Cc3nccs3)c3ccc(-c4c(-n5cc(C(F)(F)F)nn5)ccc(Cl)c4F)c[n+]3[O-])c2)cc1F (single isomer, unassigned) [Example P942] — within 0.2 log units, 6.60
- COCCOC(=O)Nc1ccc(-c2cnn(C(CC3CC3)c3ccc(-c4c(-n5cnnn5)ccc(Cl)c4F)c[n+]3[O-])c2)cc1 (centres unmarked) [Example P141] — 0.39 log units higher, 7.14
- CN(CC(c1ccc(-c2c(-n3cnnn3)ccc(Cl)c2F)c[n+]1[O-])n1cc(-c2ccnc(F)c2)cn1)C(=O)c1ccccc1 (centres unmarked) [Example P424] — 0.79 log units higher, 7.54
- [O-][n+]1cc(-c2c(-n3cnnn3)ccc(Cl)c2F)ccc1C(CC1CC1)n1cc(-c2ccnc(C(F)(F)F)n2)cn1 (centres unmarked) [Example P295] — 0.34 log units lower, 6.41
- Cn1ncc2cc(-c3cnn(C(CC4CC4)c4ccc(-c5c(-n6cnnn6)ccc(Cl)c5F)c[n+]4[O-])c3)ccc21 (centres unmarked) [Example P265] — 0.31 log units higher, 7.06
- COC(=O)CC(c1ccc(-c2c(-n3cc(C(F)(F)F)nn3)ccc(Cl)c2F)c[n+]1[O-])n1cc(-c2ccc(C(=O)O)c(F)c2)cn1 (centres unmarked) [Example P890] — 0.23 log units higher, 6.98
- Cn1ncnc1-c1cnn([C@H](Cc2ccn(C(F)F)n2)c2ccc(-c3c(-n4cc(Cl)nn4)ccc(Cl)c3F)c[n+]2[O-])c1 [Example P794] — 0.50 log units higher, 7.25
- NC(=O)c1ccc(-c2cnn(C(CC3CC3)c3ccc(-c4c(-n5cc(C(F)(F)F)nn5)ccc(Cl)c4F)c[n+]3[O-])c2)cc1F (single isomer, unassigned) [Example P889] — 0.36 log units higher, 7.11
- [2H]C([2H])([2H])OC([2H])([2H])CC(c1ccc(-c2c(-n3cc(C(F)(F)F)nn3)ccc(Cl)c2F)c[n+]1[O-])n1cc(-c2ncnn2C)cn1 (single isomer, unassigned) [Example P864] — 0.49 log units lower, 6.26
- O=C(O)c1ccc(-c2cnn(C(CC(=O)N3CCCC3)c3ccc(-c4c(-n5cc(C(F)(F)F)nn5)ccc(Cl)c4F)c[n+]3[O-])c2)cc1F (centres unmarked) [Example P901] — 0.21 log units lower, 6.54
- [O-][n+]1cc(-c2c(-n3cnnn3)ccc(Cl)c2F)ccc1C(Cn1cc2c(n1)COCC2)n1cc(-c2ccnc(C(F)(F)F)c2)cn1 (centres unmarked) [Example P465] — 0.37 log units higher, 7.12
- O=C(C1CC1CC(c1ccc(-c2c(-n3cnnn3)ccc(Cl)c2F)c[n+]1[O-])n1cc(-c2ccncc2)cn1)N1CCCC1 (centres unmarked) [Example P266] — within 0.2 log units, 6.71
- [O-][n+]1ccc(-c2cnn(C(Cn3cccn3)c3ccc(-c4c(-n5cnnn5)ccc(Cl)c4F)c[n+]3[O-])c2)cc1 (centres unmarked) [Example P348] — 0.82 log units higher, 7.57
- COCC[C@@H](c1ccc(-c2c(-n3cnnn3)ccc(Cl)c2F)c[n+]1[O-])n1cc(-c2cc(C(F)(F)F)nn2C)cn1 [Example P620] — 1.47 log units lower, 5.28
- COc1cc(C(Cc2ccn(C(F)F)n2)n2cc(-c3ccc(C(N)=O)c(F)c3)cn2)[n+]([O-])cc1-c1cc(Cl)ccc1C(C)=O (single isomer, unassigned) [Example Q78] — 0.46 log units lower, 6.29
- Cc1nccc(-c2cnn(C(CC3CC3)c3ccc(-c4c(-n5cnnn5)ccc(Cl)c4F)c[n+]3[O-])c2)n1 (centres unmarked) [Example P368] — 0.54 log units lower, 6.21
- COCc1ccnn1CC(c1ccc(-c2c(-n3cnnn3)ccc(Cl)c2F)c[n+]1[O-])n1cc(-c2ccc(N)nc2F)cn1 (centres unmarked) [Example P489] — 0.49 log units higher, 7.24
- [O-][n+]1cc(-c2c(-n3cnnn3)ccc(Cl)c2F)ccc1C(Cc1ccc(F)cc1)n1cc(-c2ccncc2)cn1 (single isomer, unassigned) [Example P236] — within 0.2 log units, 6.80
- NC(=O)c1ccc(-c2cnn(C(CCOC(F)F)c3ccc(-c4c(-n5cnnn5)ccc(Cl)c4F)c[n+]3[O-])c2)cc1F (single isomer, unassigned) [Example P928] — 2.30 log units higher, 9.05
- COC(=O)Nc1ccc(-c2cnn(C(Cc3ccc(Cl)cc3)c3ccc(-c4cc(Cl)ccc4-n4cnnn4)c[n+]3[O-])c2)cc1 (centres unmarked) [Example P92] — 0.59 log units higher, 7.34
- COCC[C@H](c1ccc(-c2c(-n3cnnn3)ccc(Cl)c2F)c[n+]1[O-])n1cc(-c2cnc(C(F)F)s2)cn1 [Example P531] — within 0.2 log units, 6.76
- Cn1nccc1-c1cnn(C(Cn2cc(F)cn2)c2ccc(-c3c(-n4cnnn4)ccc(Cl)c3F)c[n+]2[O-])c1 (single isomer, unassigned) [Example P501] — 0.62 log units lower, 6.13
- COC(=O)Nc1ccc(-c2cnn(C(Cc3ccn(C)n3)c3ccc(-c4c(-n5cnnn5)ccc(Cl)c4F)c[n+]3[O-])c2)cc1 (single isomer, unassigned) [Example P328] — 2.65 log units higher, 9.40
- Cn1ccc(CC(c2ccc(-c3c(C(F)F)ccc(Cl)c3F)c[n+]2[O-])n2cc(-c3ccc(C(=O)O)cc3)cn2)n1 (centres unmarked) [Example Q49] — 1.89 log units higher, 8.64
- NC(=O)C1CC1CC(c1ccc(-c2c(-n3cnnn3)ccc(Cl)c2F)c[n+]1[O-])n1cc(-c2ccc(N)nc2F)cn1 (single isomer, unassigned) [Example P341] — 0.26 log units lower, 6.49
- Cn1cnc(Cl)c1-c1cnn([C@H](CC2CC2)c2ccc(-c3c(-n4cnnn4)ccc(Cl)c3F)c[n+]2[O-])c1 [Example P848] — within 0.2 log units, 6.73
- [O-][n+]1cc(-c2c(-n3cnnn3)ccc(Cl)c2F)ccc1[C@@H](CC1CC1)n1cc(-c2nnco2)cn1 [Example P545] — 0.72 log units lower, 6.03
- Cn1cc2cc(-c3cnn(C(CC4CC4)c4ccc(-c5c(-n6cnnn6)ccc(Cl)c5F)c[n+]4[O-])c3)ccc2n1 (centres unmarked) [Example P326] — 0.57 log units higher, 7.32
- CCOc1cc(C(CC2CC2)n2cc(-c3ncnn3C)cn2)[n+]([O-])cc1-c1cc(Cl)ccc1-n1cc(C(F)(F)F)nn1 (single isomer, unassigned) [Example P945] — 0.26 log units lower, 6.49
- CC(C)n1ccc(C[C@H](c2ccc(-c3c(-n4cnnn4)ccc(Cl)c3F)c[n+]2[O-])n2cc(-c3ccnc(C(F)(F)F)c3)cn2)n1 [Example P652] — 1.91 log units higher, 8.66
- COc1ccc(CC(c2ccc(-c3c(-n4cnnn4)ccc(Cl)c3F)c[n+]2[O-])n2cc(-c3ccn(C)c(=O)c3)cn2)cc1 (centres unmarked) [Example P134] — 1.40 log units higher, 8.15
- [O-][n+]1cc(-c2c(-n3cnnn3)ccc(Cl)c2F)ccc1C(CCOC(F)F)n1cc(-c2cn(C(F)F)nn2)cn1 (single isomer, unassigned) [Example P660] — 0.21 log units lower, 6.54
- COC(=O)Nc1ccc(-c2cnn(C(Cc3ccc(Cl)cc3)c3ccc(-c4c(-n5cnnn5)ccc(Cl)c4F)c[n+]3[O-])c2)cc1 (single isomer, unassigned) [Example P160] — 1.40 log units higher, 8.15
- NC(=O)c1ccc(-c2cnn(C(CCOC(F)F)c3ccc(-c4c(-n5cc(Cl)nn5)ccc(Cl)c4F)c[n+]3[O-])c2)cc1 (single isomer, unassigned) [Example P895] — 0.60 log units lower, 6.15
- COC(=O)Nc1ccc(-c2cnn(C(CC(C)C)c3ccc(-c4c(-n5cnnn5)ccc(Cl)c4F)c[n+]3[O-])c2)cc1 (centres unmarked) [Example P179] — the same, 6.75
- O=C1CCC(c2ccc(-c3cnn(C(Cc4ccc(F)cc4)c4ccc(-c5c(-n6cnnn6)ccc(Cl)c5F)c[n+]4[O-])c3)cc2)N1 (centres unmarked) [Example P121] — 1.20 log units higher, 7.95
- NC(=O)c1ccc(-c2cnn(C(Cc3ccn(C(F)F)n3)c3ccc(-c4c(-n5cc(C(F)(F)F)nn5)ccc(Cl)c4F)c[n+]3[O-])c2)cc1 (single isomer, unassigned) [Example P907] — 0.40 log units higher, 7.15
